Assay results taken from patent publication US12521415B2, “Accelerating repair of mucosal injury using gold(III) compounds” (University of Kentucky Research Foundation, priority 2020, dated 2026).
“Also recorded” adds a separate entry of the source.

Key:
colonic IEC = assay: High-resolution respirometry (OCR), mtDNA and mRNA of colonic IEC from AuPhos-fed mice; format: in vivo, mouse
Source text: FIG. 10B includes high resolution respirometry results showing OCR in mitochondrial complexes of IECs from (A). […] FIG. 10D provides results of RT-qPCR analysis of genes associated with mitochondrial respiratory enzymes in AuPhos vs. control DSS mice. Stats—2-way ANOVA with Sidak's multiple comparison test. ★★<0.01, ★★★<0.0001.
FIGS. 16A-16E illustrate the pharmacokinetics and effects of AuPhos on mitochondrial bioenergetics. FIG. 16A. Biodistribution and pharmacokinetics of AuPhos in different tissues; Colon, Small bowel, Spleen, Liver after a single intragastric (i.g.) gavage (25 mg/kg) with measurements of AuPhos tissue levels (graphite furnace atomic absorption spectroscopy) at times indicated. FIG. 16B. Mitochondrial uptake of AuPhos by measuring gold content in mitochondrial fractions in normal colonocytes (NCM460). FIG. 16C. High-resolution respirometry showing OCR in mitochondrial complexes of freshly isolated IECs from AuPhos (25 mg/kg; q3D×3 doses)-fed mice compared to controls (vehicle only). Stats—2-way ANOVA with Sidak's multiple comparison test. ß<0.05, ßß<0.01. FIG. 16D.
Isolated IECs will be suspended in a mitochondria respiration medium and integrated respiration evaluated using Oxygraph-2K (Oroboros Instruments). Briefly, the capacity of electron transport system (ETS) will be evaluated by direct titration of protonophore, carbonyl cyanide p-(trifluoromethoxy) phenylhydrazone ([…]) after stabilization of routine respiration. After routine endogenous respiratory phase, cells will be permeabilized with digitonin and complex I (CI) substrates malate and pyruvate (5 mM, respectively).
(§1) OxPHOS will be then be stimulated by subsequent addition of ADP followed by additional CI substrate glutamate (5 mM). […] Residual non-mitochondrial oxygen consumption will be determined by addition of complex III inhibitor antimycin-A (1 ug/ml). Oxygen consumption rate (OCR) of isolated mitochondria will also be evaluated using Oxygraph-2K or high-throughput Seahorse XFe24 Extracellular Flux Analyzer (Agilent Technologies). […]

[1] = tested on: mouse liver mitochondria (complex I); assay: AuPhos-induced OCR in mouse liver mitochondria; format: biochemical; conditions: complex I-driven, substrates pyruvate and succinate
Source text: (§2) FIGS. 8A-8J present properties of AuPhos. FIG. 8A includes a chemical structure of AuPhos. FIG. 8B includes extrapolated AuPhos-induced OCR (complex I) in liver mitochondria. […] FIG. 8E provides weight change in AuPhos-treated mice over time. FIG. 8F presents stability of AuPhos in PBS and DMEM. FIG. 8G presents stability of AuPhos in PBS and DMEM. FIG. 8H includes an AuPhos-induced Heat map of DEG (left Panel), obtained using log 2(Fold Change) and p-Value <0.00001 thresholds in MDA-MB-231(107) cells (n=2), and the top six hits of KEGG analysis (right panel). FIG. 8I presents biodistribution and pharmacokinetics of AuPhos in different tissues; Colon, Small bowel, Lung, Kidney, Spleen, Liver, Heart and Blood after single dose (oral, 25 mg/kg) administration of AuPhos at 6 h, 12 h and 24 h. FIG. 8J presents biodistribution and pharmacokinetics of AuPhos in different tissues stool after single dose (oral, 25 mg/kg) administration of AuPhos at 6 h, 12 h and 24 h.
as §1

MDA-MB-231 cells = assay: Transcriptomics of global mRNA changes after AuPhos exposure; format: cell-based; conditions: 12 h exposure
Source text: as §2
This observation was mitochondrial complex I-driven when different substrates, i.e. pyruvate and succinate, were used to measure the OCR. Transcriptomics was used to study global changes in mRNA in response to a 12 h exposure of AuPhos to MDA-MB-231 cells (FIG. 8H).

human colonoids = assay: AmplexRed H2O2 production in human colonoid monolayer cultures; format: cell-based
Protocol: FIG. 11A includes representative images showing AuPhos-induced (200 nM) mtROS (superoxide) production using MitoSOX Red assay.
Murine IEC will be isolated as above. Human biopsies will be incubated for 15 min at RT in CMF-HBSS/10 mM DTT with following incubation at 4° C. CMF-HBSS/8 mM EDTA for 75 min. Epithelial cells will be dislodged by vigorous shaking. Large pieces of tissue will be discarded, epithelial cells harvested by centrifugation at 40 g/5 min and imbedded in Matrigel. Both human and mouse colonoids will be grown in WRN medium (conditional medium from L-WRN cells (ATCC CRL-3276)) supplemented with 20% FBS, 500 nM A 83-01, 10 μM SB 202190, 10 μM Y27632, 2.5 μM CHIR99021, 100 μg/ml piromicin and 2.5 μg/ml amphotericin. Colonoids will be passaged every 5-7 days. NCM460 cells derived from normal human colon mucosa were purchased from INCELL Corporation, and will be cultured in M3:10 medium with 30% conditioned medium from previous culture under standard incubation conditions.
Given the in vivo data in FIG. 10, it was determined if AuPhos increases ROS levels within mitochondria (mtROS). To examine this possibility, colonic NCM460 cells were cultured, treated with a positive control (Rotenone), AuPhos (200 nM) or AuPhos with PEG-SOD (negative control) and analyzed with MitoSOX Red (an indicator of mitochondrial superoxide). […]

[2] = tested on: normal colonocytes (NCM460); assay: Mitochondrial uptake of AuPhos by gold content (graphite furnace atomic absorption spectroscopy) in NCM460; format: cell-based, human; conditions: normal colon epithelial cells (NCM460)
Source text: as §2
FIGS. 16A-16E illustrate the pharmacokinetics and effects of AuPhos on mitochondrial bioenergetics. FIG. 16A. Biodistribution and pharmacokinetics of AuPhos in different tissues; Colon, Small bowel, Spleen, Liver after a single intragastric (i.g.) gavage (25 mg/kg) with measurements of AuPhos tissue levels (graphite furnace atomic absorption spectroscopy) at times indicated. FIG. 16B. […]

## [Cl][Au]1([c]2ccccc2Cc2ccccn2)[P](c2ccccc2)(c2ccccc2)c2ccccc2[P]1(c1ccccc1)c1ccccc1 [AuPhos]
Colonic IEC; 25 mg/kg q3D x3 doses, freshly isolated colonic IEC, OROBOROS 2K
  OCR in IEC in vivo: increased OCR in IEC in vivo from states II-V; also recorded: enhances mitochondrial respiration; also recorded: increased OCR (OxPHOS)
Colonic IEC; IEC from AuPhos-treated mice
  mtDNA (mtDNA/nucDNA ratio) in IEC: increased mtDNA; also recorded: higher mtDNA/nucDNA ratio
Colonic IEC; IEC from AuPhos-treated mice, RT-qPCR
  mRNA for mitochondrial CO1 and COX2: increased
[1]
  mitochondrial respiration (OCR): directly and rapidly enhances mitochondrial respiration; also recorded: significant increase in mitochondrial respiration induced by AuPhos in a dose-dependent manner
MDA-MB-231 cells
  differentially expressed genes (mRNA): mitochondrial OXPHOS genes: MT-ND1-5, MT-CYB, MT-CO1-3, and MTATP6 were modulated
Human colonoids; AuPhos 200 nM, normal and low-dose TNF-stimulated human colonoids, AmplexRed
  hydrogen peroxide (H2O2) production: increased in normal and TNF-treated cells; also recorded: Increases H2O2 production
Human colonoids; human colonoids
  AuPhos-induced ROS (H2O2) with PEG catalase: specifically digested with PEG catalase
[2]
  mitochondrial localization (gold content): localizes in the mitochondria
